Experimental data: patent publication US20230113037A1 (Bayer Aktiengesellschaft, priority 2019, published 2023)

What was measured:
AHR [1] = molecular target: T1, AHR (Mus musculus, UniProt P30561); assay: In vitro assay 3: antagonism in mouse cell line (AHR transactivation, firefly luciferase reporter, kynurenic acid prestimulated); type: cell-based; conditions: mouse Hepa 1c1c7 cells, 200 μM kynurenic acid, 20 hours, read-out: AHR Antagonism Mouse IC50
T1 sequence (P30561 1-848 P471L/N533S/M589L): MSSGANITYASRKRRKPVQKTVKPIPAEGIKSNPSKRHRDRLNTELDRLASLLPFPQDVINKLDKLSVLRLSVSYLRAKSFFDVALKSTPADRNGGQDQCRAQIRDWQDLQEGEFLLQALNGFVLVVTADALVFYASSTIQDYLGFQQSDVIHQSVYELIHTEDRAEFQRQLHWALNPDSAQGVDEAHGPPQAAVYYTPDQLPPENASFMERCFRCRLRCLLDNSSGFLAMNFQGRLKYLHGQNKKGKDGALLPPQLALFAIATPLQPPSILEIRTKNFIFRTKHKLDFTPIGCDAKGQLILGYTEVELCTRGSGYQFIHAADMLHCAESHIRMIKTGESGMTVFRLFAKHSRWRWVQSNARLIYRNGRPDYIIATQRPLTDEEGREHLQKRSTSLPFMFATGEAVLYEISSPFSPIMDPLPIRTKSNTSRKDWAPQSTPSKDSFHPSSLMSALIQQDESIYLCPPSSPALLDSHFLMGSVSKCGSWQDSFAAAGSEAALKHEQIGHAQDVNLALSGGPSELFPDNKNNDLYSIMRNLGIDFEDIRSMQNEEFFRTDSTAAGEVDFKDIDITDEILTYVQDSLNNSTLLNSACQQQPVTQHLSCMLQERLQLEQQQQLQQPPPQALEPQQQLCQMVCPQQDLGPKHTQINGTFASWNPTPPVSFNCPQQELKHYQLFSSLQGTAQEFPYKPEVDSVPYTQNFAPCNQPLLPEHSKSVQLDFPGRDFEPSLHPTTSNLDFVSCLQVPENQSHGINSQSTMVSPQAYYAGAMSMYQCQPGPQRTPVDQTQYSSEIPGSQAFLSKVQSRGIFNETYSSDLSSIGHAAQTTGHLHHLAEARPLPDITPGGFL
In short: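 Antagonism read as reduced firefly luciferase signal (SteadyGlo) from a stably transfected AHR/DRE reporter in a mouse line prestimulated with kynurenic acid. Data normalized to controls, the full-inhibition control being cells without kynurenic acid; multiple determinations given as average or median values.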

AHR [2] = molecular target: T2, AHR (Homo sapiens, UniProt P35869); assay: In vitro assay 1: antagonism in human cell line (AHR transactivation, firefly luciferase reporter, kynurenic acid prestimulated); type: cell-based; conditions: AHR Antagonism Human IC50 [M]
T2 construct: U87 MG glioblastoma cells (ATCC #HTB-14) endogenously expressing AHR; endogenous in cells; host or cells: U87 MG glioblastoma cells (ATCC #HTB-14)
T2 sequence (P35869 11-848): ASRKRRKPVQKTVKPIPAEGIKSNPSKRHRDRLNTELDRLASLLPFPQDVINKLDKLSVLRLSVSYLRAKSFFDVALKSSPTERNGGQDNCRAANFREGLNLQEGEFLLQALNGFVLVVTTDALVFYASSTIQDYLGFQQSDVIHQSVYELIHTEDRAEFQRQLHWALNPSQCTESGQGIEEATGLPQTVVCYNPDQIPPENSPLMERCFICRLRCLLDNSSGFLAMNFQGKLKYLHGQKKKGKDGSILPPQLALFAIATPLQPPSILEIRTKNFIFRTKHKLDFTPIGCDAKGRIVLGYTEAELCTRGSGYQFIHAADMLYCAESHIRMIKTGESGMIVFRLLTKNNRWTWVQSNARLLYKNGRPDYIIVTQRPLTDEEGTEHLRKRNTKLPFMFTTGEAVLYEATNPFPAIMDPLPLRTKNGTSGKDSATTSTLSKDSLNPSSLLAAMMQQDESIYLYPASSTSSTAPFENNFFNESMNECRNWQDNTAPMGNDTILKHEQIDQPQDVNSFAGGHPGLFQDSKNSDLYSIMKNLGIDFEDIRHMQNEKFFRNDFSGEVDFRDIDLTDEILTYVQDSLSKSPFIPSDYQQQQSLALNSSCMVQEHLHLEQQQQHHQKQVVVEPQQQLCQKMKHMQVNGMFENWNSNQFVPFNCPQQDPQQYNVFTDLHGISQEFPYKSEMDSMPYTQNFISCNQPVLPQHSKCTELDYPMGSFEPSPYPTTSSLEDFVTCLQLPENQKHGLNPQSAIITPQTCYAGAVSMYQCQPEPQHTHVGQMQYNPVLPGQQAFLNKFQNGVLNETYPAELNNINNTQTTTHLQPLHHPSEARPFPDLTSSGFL
In short: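 Antagonism measured as loss of kynurenic acid-driven firefly luciferase from DRE reporter in stably transfected U87 MG cells; constitutive Renilla signal monitors cytotoxicity. Positive/negative control normalization, staurosporine 5 μM with 150 μM kynurenic acid as inhibition control; replicates given as mean or median.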

SMILES | IC50 (AHR [1]) [nM] | IC50 (AHR [2]) [M]
CCCCNC(=O)[C@H](C)Nc1nc2ccccc2c2nc(-c3ccc(Cl)cc3OC(F)F)nn12 [Example 533, N-butyl-N^2-{2-[4-chloro-2-(difluoromethoxy)phenyl][1,2,4]triazolo[1,5-c]quinazolin-5-yl}alaninamide] | 3.94 | 3.72e-09
O=C1NCCCC[C@H]1Nc1nc2ccccc2c2nc(-c3cnn(C(F)F)c3)nn12 [Example 534, (3R)-3-({2-[1-(difluoromethyl)-1H-pyrazol-4-yl][1,2,4]triazolo[1,5-c]quinazolin-5-yl}amino)azepan-2-one] | 0.828 | 2.03e-09
O=C1NCCCC[C@H]1Nc1nc2ccccc2c2nc(-c3cnn(C4CC4)c3)nn12 [Example 535, (3R)-3-{[2-(1-cyclopropyl-1H-pyrazol-4-yl)[1,2,4]triazolo[1,5-c]quinazolin-5-yl]amino}azepan-2-one] | 2.57 | 5.13e-09
Cc1n[nH]c(C)c1-c1nc2c3ccccc3nc(N[C@@H]3CCCCNC3=O)n2n1 [Example 536, (3R)-3-{[2-(3,5-dimethyl-1H-pyrazol-4-yl)[1,2,4]triazolo[1,5-c]quinazolin-5-yl]amino}azepan-2-one] | 94.7 | 8.6e-08
O=C1NCCCC[C@H]1Nc1nc2ccccc2c2nc(-c3ccc(Br)o3)nn12 [Example 537, (3R)-3-{[2-(5-bromofuran-2-yl)[1,2,4]triazolo[1,5-c]quinazolin-5-yl]amino}azepan-2-one] | 1.9 | 4.31e-09
Cc1cscc1-c1nc2c3ccccc3nc(N[C@@H]3CCCCNC3=O)n2n1 [Example 538, (3R)-3-{[2-(4-methylthiophen-3-yl)[1,2,4]triazolo[1,5-c]quinazolin-5-yl]amino}azepan-2-one] | 0.646 | 8.79e-10
Cc1cscc1-c1nc2c3ccccc3nc(N[C@H]3CCCCNC3=O)n2n1 [Example 539, (3S)-3-{[2-(4-methylthiophen-3-yl)[1,2,4]triazolo[1,5-c]quinazolin-5-yl]amino}azepan-2-one] | 7.71 | 6.16e-08
Cc1cscc1-c1nc2c3ccccc3nc(N[C@@H]3CCCNC3=O)n2n1 [Example 540] | 6.24 | 6.05e-08
Cc1cscc1-c1nc2c3ccccc3nc(N[C@@H]3CCNC3=O)n2n1 [Example 541] | 631 | 3.5e-08
CC[C@@H](Nc1nc2ccccc2c2nc(-c3cscc3C)nn12)C(N)=O [Example 542] | 0.565 | 3.55e-09
COc1ccc(-c2nc3c4ccc(C(F)(F)F)cc4nc(N[C@@H]4CCCCNC4=O)n3n2)cc1 [Example 548, (3R)-3-{[2-(4-methoxyphenyl)-8-(trifluoromethyl)[1,2,4]triazolo[1,5-c]quinazolin-5-yl]amino}azepan-2-one] | 2400 | 9.46e-07
COc1ccc(-c2nc3c4ccc(OC)cc4nc(N[C@@H]4CCCCNC4=O)n3n2)cc1 [Example 549, (3R)-3-{[8-methoxy-2-(4-methoxyphenyl)[1,2,4]triazolo[1,5-c]quinazolin-5-yl]amino}azepan-2-one] | 17400 | 7.33e-08
Cn1cc(-c2nc3c4cccc(F)c4nc(N[C@@H]4CCCCNC4=O)n3n2)cn1 [Example 551, (3R)-3-{[7-fluoro-2-(1-methyl-1H-pyrazol-4-yl)[1,2,4]triazolo[1,5-c]quinazolin-5-yl]amino}azepan-2-one] | 13.8 | 1.17e-08
O=C1NCCCC[C@H]1Nc1nc2c(F)cccc2c2nc(-c3ccncc3)nn12 [Example 552, (3R)-3-{[7-fluoro-2-(pyridin-4-yl)[1,2,4]triazolo[1,5-c]quinazolin-5-yl]amino}azepan-2-one] | 230 | 1.28e-07
O=C1NCCCC[C@H]1Nc1nc2c(Cl)cccc2c2nc(-c3ccc(F)cc3)nn12 [Example 554, (3R)-3-{[7-chloro-2-(4-fluorophenyl)[1,2,4]triazolo[1,5-c]quinazolin-5-yl]amino}azepan-2-one] | 2.45 | 7.68e-09
O=C1NCCCC[C@H]1Nc1nc2c(Cl)cccc2c2nc(-c3cccc(F)c3)nn12 [Example 555, (3R)-3-{[7-chloro-2-(3-fluorophenyl)[1,2,4]triazolo[1,5-c]quianzolin-5-yl]amino}azepan-2-one] | 6.92 | 1.82e-08
COc1ccc(-c2nc3c4cccc(Br)c4nc(N[C@@H](C(N)=O)C(C)C)n3n2)cc1 [Example 556, N^2-[7-bromo-2-(4-methoxyphenyl)[1,2,4]triazolo[1,5-c]quinazolin-5-yl]-D-valinamide] | 0.415 | 4.03e-10
CC[C@@H](Nc1nc2c(Br)cccc2c2nc(-c3ccc(OC)cc3)nn12)C(N)=O [Example 557, (2R)-2-{[7-bromo-2-(4-methoxyphenyl)[1,2,4]triazolo[1,5-c]quinazolin-5-yl]amino}butanamide] | 0.865 | 2.39e-10
N#Cc1ccc(-c2nc3c4cccc(Br)c4nc(N[C@@H]4CCCCNC4=O)n3n2)cc1 [Example 558, 4-(7-bromo-5-{[(3R)-2-oxoazepan-3-yl]amino}[1,2,4]triazolo[1,5-c]quinazolin-2-yl)benzonitrile] | 0.276 | 5.96e-09
N#Cc1ccc(-c2nc3c4cccc(Br)c4nc(N[C@H]4CCCCNC4=O)n3n2)cc1 [Example 559, 4-(7-bromo-5-{[(3S)-2-oxoazepan-3-yl]amino}[1,2,4]triazolo[1,5-c]quinazolin-2-yl)benzonitrile] | 10.4 | 5.14e-09
N#Cc1ccc(-c2nc3c4cccc(Br)c4nc(N[C@@H]4CCCNC4=O)n3n2)cc1 [Example 560, 4-(7-bromo-5-{[(3R)-2-oxopiperidin-3-yl]amino}[1,2,4]triazolo[1,5-c]quinazolin-2-yl)benzonitrile] | 5.57 | 3.8e-09
N#Cc1ccc(-c2nc3c4cccc(Br)c4nc(N[C@@H]4CCNC4=O)n3n2)cc1 [Example 561, 4-(7-bromo-5-{[(3R)-2-oxopyrrolidin-3-yl]amino}[1,2,4]triazolo[1,5-c]quinazolin-2-yl)benzonitrile] | 7.55 | 3.96e-09
CCC[C@@H](Nc1nc2c(Br)cccc2c2nc(-c3ccc(C#N)cc3)nn12)C(=O)NC [Example 562, N^2-[7-bromo-2-(4-cyanophenyl)[1,2,4]triazolo[1,5-c]quinazolin-5-yl]-N-methyl-D-norvalinamide] | 2.98 | 1.37e-09
CC[C@H](Nc1nc2c(Br)cccc2c2nc(-c3ccc(C#N)cc3)nn12)C(N)=O [Example 564, (2S)-2-{[7-bromo-2-(4-cyanophenyl)[1,2,4]triazolo[1,5-c]quinazolin-5-yl]amino}butanamide] | 17.5 | 1.23e-08
COc1ccc(-c2nc3c4cccc(Br)c4nc(N[C@@H]4CCCCNC4=O)n3n2)c(OC(F)(F)F)c1 [Example 565, (3R)-3-({7-bromo-2-[4-methoxy-2-(trifluoromethoxy)phenyl][1,2,4]triazolo[1,5-c]quinazolin-5-yl}amino)azepan-2-one] | 3.33 | 8.44e-09
